This note sets out measurements from patent US9604989B2, “Imidazopyridazines as Akt kinase inhibitors” (Bayer Intellectual Property GmbH, priority 2011, dated 2017).

SMILES strings stand for the structures.

Test [1] concerns the target His-tagged human recombinant kinase full-length Akt1 (Homo sapiens (Human), UniProt P31749). The experiment in a line: Akt1 kinase assay (Akt1 TR-FRET assay). It counts as biochemical. The conditions noted are these: 10 μM ATP, 60 min at 22° C., read-out: Akt1 median IC50. On the technique in general: In TR-FRET formats the signal depends on donor and acceptor labels being close together.

For test [2], the target named is His-tagged human recombinant kinase full-length Akt2 (Homo sapiens (Human), UniProt P31751). In words: Akt2 kinase assay (Akt2 TR-FRET assay). The conditions noted are these: 10 μM ATP, 60 min at 22° C., read-out: Akt2 median IC50. It counts as biochemical.
Sequence of His-tagged human recombinant kinase full-length Akt2 (P31751 whole entry): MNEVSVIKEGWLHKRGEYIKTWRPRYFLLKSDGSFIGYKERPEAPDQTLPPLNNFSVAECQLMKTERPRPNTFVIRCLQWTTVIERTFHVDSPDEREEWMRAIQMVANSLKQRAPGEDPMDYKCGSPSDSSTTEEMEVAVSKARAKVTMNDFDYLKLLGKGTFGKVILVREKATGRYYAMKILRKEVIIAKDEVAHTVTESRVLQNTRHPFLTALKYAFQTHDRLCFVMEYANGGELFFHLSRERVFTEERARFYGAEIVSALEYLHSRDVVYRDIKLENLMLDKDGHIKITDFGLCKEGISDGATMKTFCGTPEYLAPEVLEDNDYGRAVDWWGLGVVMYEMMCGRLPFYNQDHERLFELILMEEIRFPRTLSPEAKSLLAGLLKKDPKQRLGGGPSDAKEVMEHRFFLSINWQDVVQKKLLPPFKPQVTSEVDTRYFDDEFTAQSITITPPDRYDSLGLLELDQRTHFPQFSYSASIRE
A further test concerns phospho-AKT at S473. The experiment in a line: Cellular p-AKT1/2/3-S473 assay in KPL-4 cells. It counts as cell-based. The conditions noted are these: Homo sapiens, KPL4; KPL-4 breast tumour cell line, compound treatment 2 hours; read-out: pAKT-S473 median IC50.
The next test has as its system p-4E-BP1 at T70. In words: Cellular p-4E-BP1-T70 assay in KPL-4 cells. The settings on record: Homo sapiens, KPL4; KPL-4 breast tumour cell line, compound treatment 2 hours; read-out: P4EBP1-T70 median IC50. The class given is cell-based.
Test [3] concerns KPL-4 breast cancer cell line. In words: Tumor cell proliferation assay (CellTiter-Glo), KPL-4. The class given is cell-based. The conditions noted are these: Homo sapiens, KPL4, 72 h drug exposure, read-out: KLP-4 median IC50. A general note: ATP-based viability assays read luminescence as a measure of living cells.
In test [4] the test system is MCF-7 breast tumour cell line. The experiment in a line: Tumor cell proliferation assay (CellTiter-Glo), MCF-7. It counts as cell-based. The conditions noted are these: Homo sapiens, MCF7, 72 h drug exposure, read-out: MCF-7 median IC50.
Description: Biological Assay 4.0: Tumor Cell Proliferation Assays
Compounds were tested in a cell-based assay that measures the capacity of the compounds to inhibit tumour cell proliferation following a 72 h drug exposure. Cell viability is determined using CellTiter-Glow® (CTG, Promega, cat#G7571/2/3). The CellTiter-Glo® Luminescent Cell Viability Assay is a homogeneous method to determine the number of viable cells in culture.
Detection is based on using the luciferase reaction to measure the amount of ATP from viable cells. The amount of ATP in cells correlates with cell viability. Within minutes after a loss of membrane integrity, cells lose the ability to synthesize ATP, and endogenous ATPases destroy any remaining ATP; thus the levels of ATP fall precipitously.
For each cell line assayed, cells were plated onto a separate plate for determination of fluorescence at t=0 hour and t=72 hour time points. Following overnight incubation at 37° C., chemiluminescence values for the t=0 samples were determined after adding 10 μl medium and 100 μl CTG solution according to manufacture protocol. Plates for the t=72 hour time points were treated with compounds diluted into growth medium at ten times final concentration added in 10 μL to the cell culture plate. Cells were then incubated for 72 hours at 37° C. Chemiluminescence values for the t=72 hour samples were determined. […] Experiments were controlled using a reference compound as standard.

Sequence of His-tagged human recombinant kinase full-length Akt1 (P31749 whole entry): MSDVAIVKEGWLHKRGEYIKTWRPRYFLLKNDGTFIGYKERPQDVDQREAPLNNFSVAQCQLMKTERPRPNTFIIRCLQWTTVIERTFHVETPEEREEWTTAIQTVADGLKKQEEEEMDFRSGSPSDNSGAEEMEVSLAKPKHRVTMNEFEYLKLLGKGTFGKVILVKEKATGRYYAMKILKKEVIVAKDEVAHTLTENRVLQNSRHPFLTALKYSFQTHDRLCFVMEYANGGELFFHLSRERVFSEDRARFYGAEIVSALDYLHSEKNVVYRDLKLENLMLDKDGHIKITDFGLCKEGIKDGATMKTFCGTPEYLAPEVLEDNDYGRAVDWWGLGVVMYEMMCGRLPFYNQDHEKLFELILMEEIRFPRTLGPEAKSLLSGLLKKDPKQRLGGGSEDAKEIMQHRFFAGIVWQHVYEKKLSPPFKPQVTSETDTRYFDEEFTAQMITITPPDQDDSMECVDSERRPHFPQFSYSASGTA
Description for phospho-AKT at S473: The molecular mechanism of action was investigated in a set of experiments to assess the inhibition of the PI3K-AKT-mTOR pathway in responsive cell lines such as KPL-4 breast tumour cell line (PIK3CA^H1047R, HER2^O/E and hormone independent). The phospho-substrates of PI3K-AKT-mTOR axis were used as the read-outs to reflect pathway inhibition. Cells were seeded at 60-80% confluency per well in 96-well cell culture plates. After overnight incubation at 37° C. 5% CO2, cells were treated with compounds and vehicle at 37° C. for 2 hours. […] All measurements where at least done in duplicates and confirmed by independent repetition.
Alternatively pAKT-S473 was measured using the “Akt Duplex” of the MULTI-SPOT® Assay System (Fa. Meso Scale Discovery, Cat#N41100B-1) following manufacturers instructions. Each assay used 20 μg of protein extract and measured total AKT and p-AKT content simultaneously in one well. All measurements where at least done in duplicates and confirmed by independent repetition. Values for P-AKT are expressed as percentage of P-AKT level compared to total-AKT content of the extracts.

Consider `COc1ccc2nc(-c3ccc(C4(N)CCC4)cc3)c(-c3ccccc3)n2n1` [Example 6, 1-[4-(6-Methyloxy-3-phenylimidazo[1,2-b]pyridazin-2-yl)phenyl]cyclobutanamine], for which the concentration for half-maximal inhibition (IC50) in test [1] was found to be 4.2 nM; in test [2] it was 80 nM; in the test with phospho-AKT at S473, 210 nM; with p-4E-BP1 at T70, 1300 nM; in test [3], 1100 nM; in test [4], 1200 nM.

For the compound `COc1cc(Br)nn2c(-c3ccccc3)c(-c3ccc(C4(N)CCC4)cc3)nc12` [Example 7, 1-[4-(6-Bromo-8-methyloxy-3-phenylimidazo[1,2-b]pyridazin-2-yl)phenyl]-cyclobutanamine], the IC50 stood at 6.9 nM in test [1]; 9.7 nM in test [2]; 27 nM in the test on phospho-AKT at S473; 1300 nM in the test with p-4E-BP1 at T70; 250 nM in test [3]; 410 nM in test [4].

Regarding `NC1(c2ccc(-c3nc4ccc(C(=O)O)nn4c3-c3ccccc3)cc2)CCC1` [Example 8, 2-[4-(1-Aminocyclobutyl)phenyl]-3-phenylimidazo[1,2-b]pyridazine-6-carboxylic acid], the IC50 was 450 nM in test [1]; 400 nM in test [2]; greater than 10000 nM with phospho-AKT at S473; greater than 10000 nM in the test on p-4E-BP1 at T70; greater than 10000 nM in test [3]; greater than 10000 nM in test [4].

`COc1cc(OC)c2nc(-c3ccc(C4(N)CCC4)cc3)c(-c3ccccc3)n2n1` [Example 9, 1-[4-(6,8-Dimethyloxy-3-phenylimidazo[1,2-b]pyridazin-2-yl)phenyl]-cyclobutanamine]: the IC50 was found to be 3.9 nM in test [1]; 18 nM in test [2]; 36 nM in the test on phospho-AKT at S473; 690 nM with p-4E-BP1 at T70; 770 nM in test [3]; 340 nM in test [4].

As for `COc1cc(C(N)=O)nn2c(-c3ccccc3)c(-c3ccc(C4(N)CCC4)cc3)nc12` [Example 10, 2-[4-(1-Aminocyclobutyl)phenyl]-8-methoxy-3-phenylimidazo[1,2-b]-pyridazine-6-carboxamide], the IC50 in test [1] was determined as 2.6 nM; in test [2], 4.1 nM; in the test on phospho-AKT at S473 it was 2.4 nM; in the test with p-4E-BP1 at T70 it was 28 nM; in test [3], 49 nM; in test [4], 39 nM.

For the compound `COc1ccnn2c(-c3ccccc3)c(-c3ccc(C4(N)CCC4)cc3)nc12` [Example 11, 1-[4-(8-Methoxy-3-phenylimidazo[1,2-b]pyridazin-2-yl)phenyl]cyclobutanamine], the IC50 in test [1] worked out at 130 nM; in test [2], 110 nM; in the test with phospho-AKT at S473, 14 nM; in the test on p-4E-BP1 at T70 it was 160 nM; in test [3] it was 630 nM; in test [4], 470 nM.

`COc1cc(-c2cccnc2)c2nc(-c3ccc(C4(N)CCC4)cc3)c(-c3ccccc3)n2n1` [Example 14, 1-{4-[6-Methoxy-3-phenyl-8-(pyridin-3-yl)imidazo [1,2-b]pyridazin-2-yl]phenyl}cyclobutanamine]: the IC50 in test [1] came to 9.8 nM; in test [2], 65 nM; with phospho-AKT at S473 it was 220 nM; with p-4E-BP1 at T70 it was 320 nM; in test [3] it was 1900 nM; in test [4], 1800 nM.

As to `CCc1cc(CC)c2nc(-c3ccc(C4(N)CCC4)cc3)c(-c3ccccc3)n2n1` [Example 16, 1-[4-(6,8-Diethyl-3-phenylimidazo[1,2-b]pyridazin-2-yl)phenyl]cyclobutanamine], the IC50 in test [1] is 160 nM; in test [2], 160 nM; in the test on phospho-AKT at S473, 520 nM; in the test with p-4E-BP1 at T70, 2500 nM; in test [3], 2000 nM; in test [4], 1800 nM.

For `C=Cc1cc(OC)c2nc(-c3ccc(C4(N)CCC4)cc3)c(-c3ccccc3)n2n1` [Example 18, 1-[4-(8-Methoxy-3-phenyl-6-vinylimidazo[1,2-b]pyridazin-2-yl)phenyl]-cyclobutanamine], the IC50 in test [1] was 86 nM; in test [2], 53 nM; in the test with phospho-AKT at S473, 180 nM; in the test on p-4E-BP1 at T70, 710 nM; in test [3] it was 1600 nM; in test [4] it was 1100 nM.

By IC50 is commonly meant the midpoint of a concentration-inhibition curve.
